Experimental findings from ChEMBL document CHEMBL1125793 (J Med Chem, 1991) are described below.

The target in the assay is T1, Angiotensin II receptor (Rattus norvegicus, UniProt P29089+P25095+P35351).
T1 sequence (P29089 whole entry): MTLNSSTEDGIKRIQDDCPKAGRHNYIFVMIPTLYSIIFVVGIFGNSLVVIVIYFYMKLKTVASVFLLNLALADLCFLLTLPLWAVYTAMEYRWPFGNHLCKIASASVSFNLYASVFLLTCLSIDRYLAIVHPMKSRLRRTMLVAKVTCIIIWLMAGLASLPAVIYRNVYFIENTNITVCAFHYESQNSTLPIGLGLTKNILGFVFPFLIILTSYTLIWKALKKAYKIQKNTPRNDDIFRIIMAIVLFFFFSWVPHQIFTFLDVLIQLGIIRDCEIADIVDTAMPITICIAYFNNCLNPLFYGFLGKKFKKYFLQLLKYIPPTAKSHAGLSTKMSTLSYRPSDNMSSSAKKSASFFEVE
T1 sequence (P25095 whole entry): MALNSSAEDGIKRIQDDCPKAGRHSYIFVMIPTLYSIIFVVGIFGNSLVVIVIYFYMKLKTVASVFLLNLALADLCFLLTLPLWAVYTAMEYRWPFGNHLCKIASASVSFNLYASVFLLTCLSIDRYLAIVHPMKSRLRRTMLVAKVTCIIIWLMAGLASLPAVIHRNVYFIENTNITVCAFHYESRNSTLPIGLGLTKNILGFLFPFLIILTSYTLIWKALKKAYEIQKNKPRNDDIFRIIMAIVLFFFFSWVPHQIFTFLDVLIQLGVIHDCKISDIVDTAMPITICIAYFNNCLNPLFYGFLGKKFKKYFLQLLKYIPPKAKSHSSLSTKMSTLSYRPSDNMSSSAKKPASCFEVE
T1 sequence (P35351 whole entry): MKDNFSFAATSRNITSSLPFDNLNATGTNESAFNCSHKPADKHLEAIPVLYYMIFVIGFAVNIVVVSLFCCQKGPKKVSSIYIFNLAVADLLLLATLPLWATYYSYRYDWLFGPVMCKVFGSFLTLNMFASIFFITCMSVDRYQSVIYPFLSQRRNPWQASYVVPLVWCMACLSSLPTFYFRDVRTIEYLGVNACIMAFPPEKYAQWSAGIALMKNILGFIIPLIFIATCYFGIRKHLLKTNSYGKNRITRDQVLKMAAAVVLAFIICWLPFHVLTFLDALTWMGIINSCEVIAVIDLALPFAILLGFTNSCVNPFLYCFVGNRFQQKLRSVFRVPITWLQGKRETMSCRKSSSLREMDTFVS
Description: Binding affinity against Angiotensin II receptor, from rat adrenal gland. In kind it is tissue-based.
In the case of `COc1ccc(Cn2cnc3c2C[C@@H](C(=O)O)N(C(=O)CC24CC5CC(CC(C5)C2)C4)C3)cc1C`, the concentration for half-maximal inhibition (IC50) – broadly, the midpoint of a concentration-inhibition curve – was 28 µM.

As for `COc1ccc(Cn2cnc3c2C[C@@H](C(=O)O)N(C(=O)C2(c4ccccc4)CCCC2)C3)cc1C`, the IC50 stood at 0.84 µM.

`COc1ccc(Cn2cnc3c2C[C@@H](C(=O)O)N(C(=O)C(Cc2ccccc2)c2ccccc2)C3)cc1C` (some centres undefined) displayed a half-inhibitory concentration (IC50) of 3.5 µM.

`O=C(O)C1Cc2c(ncn2Cc2ccccc2)CN1C(=O)OCc1ccccc1` (stereo in doubt; 7): the 50% inhibitory concentration (IC50) stood at 14 µM.

Take `Nc1ccc(C(C(=O)N2Cc3ncn(Cc4ccccc4)c3CC2C(=O)O)c2ccc(N)cc2)cc1` (centres undefined): the half-inhibitory concentration (IC50) was 8.4 µM.

`O=C(O)C1Cc2c(ncn2Cc2ccccc2)CN1C(=O)NCc1ccccc1` (centres undefined) registered an IC50 of 11 µM.

`O=C(O)C1Cc2c(ncn2Cc2ccccc2)CN1C(=O)c1cccc2ccccc12` (centres undefined): the IC50 was 9.8 µM.

`COc1ccc(Cn2cnc3c2C[C@@H](C(=O)O)N(C(=O)CC(c2ccccc2)c2ccccc2)C3)cc1C` came in with an IC50 of 4.2 µM.

`Cc1cc(Cn2cnc3c2C[C@H](C(=O)O)N(C(=O)C(c2ccccc2)c2ccccc2)C3)ccc1N(C)C.O` displayed an IC50 of 0.097 µM.

With `O=C(O)[C@@H]1Cc2c(ncn2Cc2ccc(F)cc2)CN1C(=O)C(c1ccccc1)c1ccccc1`, the IC50 came out at 0.45 µM.

Regarding `O=C(O)C1Cc2c(ncn2Cc2ccccc2)CN1C(=O)Oc1ccccc1` (centres undefined), the IC50 was 4.6 µM.

The compound `COc1ccc(Cn2cnc3c2C[C@@H](C(=O)O)N(C(=O)C(c2ccccc2)c2ccccc2)C3)cc1F` yielded a concentration for half-maximal inhibition (IC50) of 0.26 µM.

For the compound `COc1ccc(Cn2cnc3c2C[C@@H](C(=O)O)N(C(=O)C(c2ccccc2)C2CCCCC2)C3)cc1C` (some centres undefined), the IC50 stood at 0.085 µM.

As to `O=C(O)[C@@H]1Cc2c(ncn2Cc2cccc(Cl)c2)CN1C(=O)C(c1ccccc1)c1ccccc1`, the concentration for half-maximal inhibition (IC50) was determined as 1.2 µM.

`CN(C(=O)N1Cc2ncn(Cc3ccccc3)c2CC1C(=O)O)c1ccccc1` (stereo in doubt; 3) yielded an IC50 of 1.2 µM.

`O=C(O)[C@@H]1Cc2c(ncn2Cc2cccc(C(F)(F)F)c2)CN1C(=O)C(c1ccccc1)c1ccccc1` came in with a 50% inhibitory concentration (IC50) of 0.46 µM.

On to `O=C(O)[C@@H]1Cc2c(ncn2Cc2cccc(Br)c2)CN1C(=O)C(c1ccccc1)c1ccccc1`, for which the IC50 is 0.65 µM.

Turning to `CN(C(=O)N1Cc2ncn(Cc3ccccc3)c2CC1CO)c1ccccc1` (centres undefined), the IC50 was found to be 1.6 µM.

Compound `O=C(C(c1ccccc1)c1ccccc1)N1CCc2c(ncn2Cc2ccccc2)C1` displayed an IC50 of 6.1 µM.

As for `COc1ccc(Cn2cnc3c2C[C@@H](C(=O)O)N(C(=O)N(C)c2ccccc2)C3)cc1C`, the IC50 came to 0.14 µM.

Take `O=C(O)C1Cc2c(ncn2Cc2ccccc2)CN1C(=O)/C=C/c1ccccc1` (centres undefined): the concentration for half-maximal inhibition (IC50) was determined as 2.5 µM.

For the compound `CC(C)NC(=O)N1Cc2ncn(Cc3ccccc3)c2CC1C(=O)O` (centres undefined), the IC50 came out at 21 µM.

With `CCN(CC)c1ccc(Cn2cnc3c2C[C@@H](C(=O)O)N(C(=O)C(c2ccccc2)c2ccccc2)C3)cc1`, the 50% inhibitory concentration (IC50) came to 0.29 µM.

In turn, `Cc1ccc(S(=O)(=O)N2Cc3ncn(Cc4ccccc4)c3CC2C(=O)O)cc1` (centres undefined) yielded a half-maximal inhibitory concentration (IC50) of 4.2 µM.

Turning to `COc1ccc(Cn2cnc3c2C[C@@H](C(=O)O)N(C(=O)C(c2ccccc2)C2CCCC2)C3)cc1C` (some centres undefined), the 50% inhibitory concentration (IC50) was found to be 0.067 µM.

With `O=C(O)[C@H]1Cc2c(ncn2Cc2ccccc2)CN1C(=O)C(c1ccccc1)c1ccccc1`, the half-inhibitory concentration (IC50) was determined as 1.2 µM.

The compound `O=C(O)[C@@H]1Cc2c(ncn2C(c2ccccc2)c2ccccc2)CN1C(=O)C(c1ccccc1)c1ccccc1` gave an IC50 of 0.11 µM.

For the compound `O.O=C(O)[C@@H]1Cc2c(ncn2CC2CCCCC2)CN1C(=O)C(c1ccccc1)c1ccccc1`, the IC50 is 0.34 µM.

Consider `O=C(O)C1Cc2c(ncn2Cc2ccccc2)CN1C(=O)COc1ccccc1` (centres undefined), for which the concentration for half-maximal inhibition (IC50) was found to be 4 µM.

The compound `Cc1ccc(C(C(=O)N2Cc3ncn(Cc4ccccc4)c3CC2C(=O)O)c2ccc(C)cc2)cc1` (centres undefined) yielded a concentration for half-maximal inhibition (IC50) of 1.3 µM.

The compound `O=C(O)C1Cc2c(ncn2Cc2ccccc2)CN1C(=O)OCc1ccccc1` (stereo in doubt; 7a) registered a half-maximal inhibitory concentration (IC50) of 4.2 µM.

As for `COc1ccc(Cn2cnc3c2C[C@@H](C(=O)O)N(C(=O)C(c2ccccc2)c2ccccc2)C3)cc1OC`, the IC50 is 0.098 µM.

In the case of `O=C(O)C1Cc2c(ncn2Cc2ccccc2)CN1C(=O)C(c1ccccc1)C1CCCC1` (centres undefined), the IC50 was determined as 0.071 µM.

On to `Cc1cc(C)cc(Cn2cnc3c2C[C@@H](C(=O)O)N(C(=O)C(c2ccccc2)c2ccccc2)C3)c1`, for which the IC50 was 0.14 µM.

With `O=C(O)C1Cc2c(ncn2Cc2ccccc2)CN1C(=O)CCc1ccccc1` (centres undefined), the half-inhibitory concentration (IC50) is 13 µM.

`O=C(O)C1Cc2c(ncn2Cc2ccccc2)CN1C(=O)C(c1ccc([N+](=O)[O-])cc1)c1ccc([N+](=O)[O-])cc1` (centres undefined): the 50% inhibitory concentration (IC50) turned out to be 13 µM.

Compound `COc1ccc(Cn2cnc3c2C[C@@H](C(=O)O)N(C(=O)C(c2ccccc2)c2ccccc2)C3)cc1C` returned an IC50 of 0.07 µM.

As to `CC(=O)Nc1ccc(Cn2cnc3c2C[C@@H](C(=O)O)N(C(=O)C(c2ccccc2)c2ccccc2)C3)cc1`, the IC50 was found to be 0.35 µM.

For `O=C(O)C1Cc2c(ncn2Cc2ccccc2)CN1C(=O)Cc1ccccc1` (stereo in doubt; 14), the IC50 was determined as 1.4 µM.

With `O=C(Cc1ccccc1)N1Cc2ncn(Cc3ccccc3)c2CC1CO` (centres undefined), the IC50 was found to be 5.2 µM.

Regarding `Cc1cc(Cn2cnc3c2CC(CO)N(C(=O)C(c2ccccc2)c2ccccc2)C3)ccc1[N+](=O)[O-]` (centres undefined), the IC50 worked out at 2 µM.

`Cc1cc(Cn2cnc3c2CC(CO)N(C(=O)C(c2ccccc2)c2ccccc2)C3)ccc1N(C)C` (centres undefined) registered a 50% inhibitory concentration (IC50) of 0.2 µM.

In turn, `O=C(O)[C@@H]1Cc2c(ncn2Cc2ccc([N+](=O)[O-])cc2)CN1C(=O)C(c1ccccc1)c1ccccc1` yielded a concentration for half-maximal inhibition (IC50) of 0.61 µM.

`COC(=O)C1Cc2c(ncn2Cc2ccc(N(C)C)c(C)c2)CN1C(=O)C(c1ccccc1)c1ccccc1` (centres undefined) gave an IC50 of 0.35 µM.

For `CC(=O)Nc1ccc(Cn2cnc3c2C[C@@H](C(=O)O)N(C(=O)C(c2ccccc2)c2ccccc2)C3)cc1C`, the IC50 was 0.089 µM.

`COc1ccc(Cn2cnc3c2C[C@@H](C(=O)O)N(C(=O)C(C)(c2ccccc2)c2ccccc2)C3)cc1C`: the IC50 worked out at 9.5 µM.

Compound `CN(C(=O)N1Cc2ncn(Cc3ccccc3)c2CC1C(=O)O)c1ccccc1` (stereo in doubt; 3a) had an IC50 of 1.1 µM.

For the compound `COc1ccc(C(C(=O)N2Cc3ncn(Cc4ccccc4)c3CC2C(=O)O)c2ccc(OC)cc2)cc1` (centres undefined), the IC50 was 0.61 µM.

In the case of `O=C(O)C1Cc2c(ncn2Cc2ccccc2)CN1C(=O)CC(c1ccccc1)c1ccccc1` (centres undefined), the IC50 was 1.2 µM.

Compound `O=C(C(c1ccccc1)c1ccccc1)N1Cc2ncn(Cc3ccccc3)c2CC1CO` (centres undefined) came in with a half-maximal inhibitory concentration (IC50) of 2.1 µM.

`O=C(O)C1Cc2c(ncn2Cc2ccccc2)CN1C(=O)C(c1ccccc1)c1ccccc1` (stereo in doubt; 18) returned an IC50 of 1 µM.

Regarding `Cc1ccc(Cn2cnc3c2C[C@@H](C(=O)O)N(C(=O)C(c2ccccc2)c2ccccc2)C3)cc1C`, the IC50 was found to be 0.3 µM.

`COc1ccc(Cn2cnc3c2C[C@@H](C(=O)O)N(C(=O)/C=C\c2ccccc2)C3)cc1C` yielded an IC50 of 2.2 µM.

Compound `Nc1ccc(Cn2cnc3c2C[C@@H](C(=O)O)N(C(=O)C(c2ccccc2)c2ccccc2)C3)cc1` returned an IC50 of 0.15 µM.

`O=C(O)[C@@H]1Cc2c(ncn2Cc2cccnc2)CN1C(=O)C(c1ccccc1)c1ccccc1` gave a half-maximal inhibitory concentration (IC50) of 0.12 µM.

Compound `Cc1cc(Cn2cnc3c2C[C@@H](C(=O)O)N(C(=O)C(c2ccccc2)c2ccccc2)C3)ccc1O` came in with an IC50 of 0.056 µM.

The compound `COc1ccc(Cn2cnc3c2C[C@@H](C(=O)O)N(C(=O)C(C)c2ccccc2)C3)cc1C` (some centres undefined) registered an IC50 of 0.56 µM.

`COc1ccc(Cn2cnc3c2C[C@@H](C(=O)O)N(C(=O)Cc2ccccc2)C3)cc1C` showed an IC50 of 0.53 µM.

Turning to `COc1ccc(Cn2cnc3c2C[C@@H](C(=O)O)N(C(=O)C(c2ccc(Cl)cc2)c2ccc(Cl)cc2)C3)cc1C`, the IC50 was 2.4 µM.

In turn, `COc1ccc(Cn2cnc3c2C[C@@H](C(=O)O)N(C(=O)C2(c4ccccc4)CCCCC2)C3)cc1C` showed an IC50 of 0.11 µM.

`O=C(O)C1Cc2ncn(Cc3ccccc3)c2CN1C(=O)/C=C/c1ccccc1` (centres undefined): the IC50 is 29 µM.

Consider `O=C(O)C1Cc2c(ncn2Cc2ccccc2)CN1S(=O)(=O)Cc1ccccc1` (centres undefined), for which the half-maximal inhibitory concentration (IC50) stood at 19 µM.

For `COc1ccc(C)cc1Cn1cnc2c1C[C@@H](C(=O)O)N(C(=O)C(c1ccccc1)c1ccccc1)C2`, the IC50 turned out to be 0.72 µM.

`COc1ccc(Cn2cnc3c2C[C@@H](C(=O)O)N(C(=O)C(c2ccc(F)cc2)c2ccc(F)cc2)C3)cc1C` showed an IC50 of 2.3 µM.
